Laboratory results taken from patent EP4768484A1, “HETEROCYCLIC FUSED RING COMPOUND, AND COMPOSITION AND USE THEREOF” (Shenzhen TargetRx, Inc., priority 2023, dated 2025).

How the values were obtained:
Type in all cases: cell-based
[1] = tested on: K562 cells; assay: Cell growth inhibitory activity assay (CellTiter-Glo), K562 cells; details: Homo sapiens, 72 h, CTG cell viability
Summary of the method: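 K562 cells in logarithmic growth were counted, diluted and plated in 96-well plates, with medium-only blanks and a separate T0 plate read by CTG the following day. After overnight incubation, graded compound concentrations were added for 72 h, with 0.5% DMSO wells as growth controls. Luminescence was read on a Biotek cytation3.0, and IC50 came from nonlinear fitting in GraphPad Prism 7.0.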

[2] = target: T1, Ba/F3 BCR-ABL1 Y253H/E255K (Homo sapiens, UniProt P00519+P11274, E255K/Y253H); assay: Cell growth inhibitory activity assay (CellTiter-Glo), Ba/F3 BCR-ABL1 Y253H/E255K cells; details: 72 h, CTG cell viability
T1 construct: BCR (N-terminal fusion partner of the oncoprotein); expressed in transfected cells; host or cells: Ba/F3 (lentiviral transduction, monoclonal line)
Experimental: (§1) In this assay, the Celltiter-Glo (CTG) kit provided by Promega was used, and it is a homogeneous cell viability assay method. The cell viability of cultured cells was measured by quantifying ATP. K562 cells were purchased from Nanjing Kebai, product number CBP60529; Ba/F3 parental cells were purchased from RIKEN BRC, product number RCB0805; other cells containing BCR-ABL1 WT, BCR-ABL1 T315I, BCR-ABL1 T315M, BCR-ABL1 Y253H/E255K, BCR-ABL1 E255V/T3151, BCR-ABL1 A424T, BCR-ABL1 A337V, BCR-ABL1 P465S, BCR-ABL1 V468F, and BCR-ABL1 I502L were all monoclonal engineered cell lines obtained by transducting Ba/F3 parental cells with the lentivirus plasmids containing WT or corresponding mutated BCR-ABL1.
(§2) The steps of cell viability assay are as follows: • a) Cells in logarithmic growth phase were collected. Cell suspension was prepared and the cells were counted. Concentration of the cells was calculated. • b) The cell suspension was diluted to the required concentration and then added to the middle wells of a 96-well plate, and PBS was added to the edge wells. The wells with no cells and only culture medium were used as blank controls. • c) In addition to the cell plate used for compound analysis, another 96-well plate was prepared as a T0 plate, and 3-6 blank wells and 3-6 cell wells were added. The next day, CTG was used to test the cell viability as the T0 viability value of the cells. • d) The cell plate was incubated at 37 °C in a 5% CO2 incubator overnight. • e) The next day, each concentration of a compound subjected to a gradient dilution was added, and the cell plate was incubated at 37 °C in a 5% CO2 incubator for 72 h. The wells with no compound and only 0.5% DMSO were used as positive controls for cell growth. • f) CTG reagent (CellTiter-Glo kit) was added according to the manufacturer's instructions to test the cell viability value. • g) The plate was read using Biotek cytation3.0 microplate reader and the data were exported. • h) IC50 was calculated using GraphPad Prism 7.0 software.
(§3) The IC50 (half-maximal inhibitory concentration) of the compound was obtained using the following nonlinear fitting formula: Y = Bottom + (Top−Bottom)/(1+10^(∧)((LogIC50−X)*HillSlope)) [formula] • X: Log value of the compound concentration • Y: Inhibition rate (% inhibition) • Top: Maximum response • Bottom: Baseline response • HillSlope: Slope of the curve
(§4) The formula for calculating cell inhibition rate (inhibition rate %) was: [formula]

[3] = tested on: Ba/F3 parental cells; assay: Cell growth inhibitory activity assay (CellTiter-Glo), Ba/F3 parental cells; details: Mus musculus, BaF3, 72 h, CTG cell viability, read-out: IC50 Ba/F3 BCR-ABL1 Parental
Summary of the method: (§5)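 Compound dilutions applied for 72 h (37 °C, 5% CO2) to overnight-plated Ba/F3 cells, parental or engineered to express WT/mutant BCR-ABL1. ATP-based CellTiter-Glo luminescence read, referenced to day-0 viability and 0.5% DMSO wells; IC50 fitted by four-parameter logistic curve.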

[4] = target: T2, Ba/F3 BCR-ABL1 T315M (Homo sapiens, UniProt P00519+P11274, T315M); assay: Cell growth inhibitory activity assay (CellTiter-Glo), Ba/F3 BCR-ABL1 T315M cells; details: 72 h, CTG cell viability
T2 construct: BCR (N-terminal fusion partner of the oncoprotein); expressed in transfected cells; host or cells: Ba/F3 (lentiviral transduction, monoclonal line)
Summary of the method: as §5

[5] = target: T3, Ba/F3 BCR-ABL1 A424T (Homo sapiens, UniProt P00519+P11274, A424T); assay: Cell growth inhibitory activity assay (CellTiter-Glo), Ba/F3 BCR-ABL1 A424T cells; details: 72 h, CTG cell viability
T3 construct: BCR (N-terminal fusion partner of the oncoprotein); expressed in transfected cells; host or cells: Ba/F3 (lentiviral transduction, monoclonal line)
Experimental: as §1, §2, §3, §4

[6] = target: T4, Ba/F3 BCR-ABL1 A337V (Homo sapiens, UniProt P00519+P11274, A337V); assay: Cell growth inhibitory activity assay (CellTiter-Glo), Ba/F3 BCR-ABL1 A337V cells; details: 72 h, CTG cell viability
T4 construct: BCR (N-terminal fusion partner of the oncoprotein); expressed in transfected cells; host or cells: Ba/F3 (lentiviral transduction, monoclonal line)
Experimental: as §1, §2, §3, §4

[7] = target: T5, Ba/F3 BCR-ABL1 P465S (Homo sapiens, UniProt P00519+P11274, P465S); assay: Cell growth inhibitory activity assay (CellTiter-Glo), Ba/F3 BCR-ABL1 P465S cells; details: 72 h, CTG cell viability
T5 construct: BCR (N-terminal fusion partner of the oncoprotein); expressed in transfected cells; host or cells: Ba/F3 (lentiviral transduction, monoclonal line)
Experimental: as §1, §2, §3, §4

[8] = target: T6, Ba/F3 BCR-ABL1 E255V/T315I (Homo sapiens, UniProt P00519+P11274, E255V/T315I); assay: Cell growth inhibitory activity assay (CellTiter-Glo), Ba/F3 BCR-ABL1 E255V/T315I cells; details: 72 h, CTG cell viability
T6 construct: BCR (N-terminal fusion partner of the oncoprotein); expressed in transfected cells; host or cells: Ba/F3 (lentiviral transduction, monoclonal line)
Experimental: as §1, §2, §3, §4

[9] = target: T7, Ba/F3 BCR-ABL1 I502L (Homo sapiens, UniProt P00519+P11274, I502L); assay: Cell growth inhibitory activity assay (CellTiter-Glo), Ba/F3 BCR-ABL1 I502L cells; details: 72 h, CTG cell viability
T7 construct: BCR (N-terminal fusion partner of the oncoprotein); expressed in transfected cells; host or cells: Ba/F3 (lentiviral transduction, monoclonal line)
Experimental: as §1, §2, §3, §4

[10] = target: T8, Ba/F3 BCR-ABL1 V468F (Homo sapiens, UniProt P00519+P11274, V468F); assay: Cell growth inhibitory activity assay (CellTiter-Glo), Ba/F3 BCR-ABL1 V468F cells; details: 72 h, CTG cell viability
T8 construct: BCR (N-terminal fusion partner of the oncoprotein); expressed in transfected cells; host or cells: Ba/F3 (lentiviral transduction, monoclonal line)
Experimental: as §1, §2, §3, §4

[11] = target: T9, Ba/F3 BCR-ABL1 WT (Homo sapiens, UniProt P00519+P11274); assay: Cell growth inhibitory activity assay (CellTiter-Glo), Ba/F3 BCR-ABL1 WT cells; details: 72 h, CTG cell viability
T9 construct: BCR (N-terminal fusion partner of the oncoprotein); expressed in transfected cells; host or cells: Ba/F3 (lentiviral transduction, monoclonal line)
Summary of the method: as §5

[12] = target: T10, Ba/F3 BCR-ABL1 T315I (Homo sapiens, UniProt P00519+P11274, T315I); assay: Cell growth inhibitory activity assay (CellTiter-Glo), Ba/F3 BCR-ABL1 T315I cells; details: 72 h, CTG cell viability
T10 construct: BCR (N-terminal fusion partner of the oncoprotein); expressed in transfected cells; host or cells: Ba/F3 (lentiviral transduction, monoclonal line)
Summary of the method: as §5

Row | SMILES | IC50 [1] | IC50 [2] | IC50 [3] | IC50 [4] | IC50 [5] | IC50 [6] | IC50 [7] | IC50 [8] | IC50 [9] | IC50 [10] | IC50 [11] | IC50 [12]
1 | C[C@@H]1COCc2nc3cc(C(=O)Nc4ccc(OC(F)(F)Cl)cc4)cc(-c4cnc5c(c4)-c4nn(S(C)(=O)=O)cc4C5)c3n21 [T-42, (R)-N-(4-(chlorodifluoromethoxy)phenyl)-4-methyl-6-(2-(methylsulfonyl)-2,4-dihydropyrazolo[3',4':3,4]cyclopenta[1,2-b]pyridin-7-yl)-3,4-dihydro-1H-benzo[4,5]imidazo[2,1-c][1,4]oxazine-8-carboxamide] | ≤ 5 nM | 50 to 1000 nM | > 1000 nM | 50 to 1000 nM | 50 to 1000 nM | 50 to 1000 nM | 50 to 1000 nM | 50 to 1000 nM | 50 to 1000 nM | 50 to 1000 nM | ≤ 5 nM | 5 to 50 nM
2 | C[C@@H]1COCc2nc3cc(C(=O)Nc4ccc(OC(F)(F)Cl)cc4)cc(-c4cnc5c(c4)-c4nn(C6CC6)cc4C5)c3n21 [T-57, (R)-N-(4-(chlorodifluoromethoxy)phenyl)-6-(2-cyclopropyl-2,4-dihydropyrazolo[3',4':3,4]cyclopenta[1,2-b]pyridin-7-yl)-4-methyl-3,4-dihydro-1H-benzo[4,5]imidazo[2,1-c][1,4]oxazine-8-carboxamide] | ≤ 5 nM | 5 to 50 nM | > 1000 nM | > 1000 nM | 5 to 50 nM | 5 to 50 nM | 50 to 1000 nM | ≤ 5 nM | 5 to 50 nM | 5 to 50 nM | ≤ 5 nM | ≤ 5 nM
3 | C[C@@H]1COCc2nc3cc(C(=O)Nc4ccc(OC(F)(F)Cl)cc4)cc(-c4cnc5c(c4)-c4n[nH]cc4C5)c3n21 [T-3, (R)-N-(4-(chlorodifluoromethoxy)phenyl)-6-(2,4-dihydropyrazolo[3',4':3,4]cyclopenta[1,2-b]pyridin-7-yl)-4-methyl-3,4-dihydro-1H-benzo[4,5]imidazo[2,1-c][1,4]oxazine-8-carboxamide] | ≤ 5 nM | ≤ 5 nM | > 1000 nM | 50 to 1000 nM | 5 to 50 nM | 5 to 50 nM | 5 to 50 nM | ≤ 5 nM | 5 to 50 nM | 5 to 50 nM | ≤ 5 nM | ≤ 5 nM

Further lines, with some results ahead:

Row | IC50 [1] | SMILES | IC50 [2] | IC50 [3] | IC50 [4] | IC50 [5] | IC50 [6] | IC50 [7] | IC50 [8] | IC50 [9] | IC50 [10] | IC50 [11] | IC50 [12]
4 | ≤ 5 nM | C[C@@H]1COCc2nc3cc(C(=O)Nc4ccc(OC(F)(F)Cl)cc4)cc(-c4cnc5c(c4)-c4nn(-c6cnccn6)cc4C5)c3n21 [T-71, (R)-N-(4-(chlorodifluoromethoxy)phenyl)-4-methyl-6-(2-(pyrazin-2-yl)-2,4-dihydropyrazolo[3',4':3,4]cyclopenta[1,2-b]pyridin-7-yl)-3,4-dihydro-1H-benzo[4,5]imidazo[2,1-c][1,4]oxazine-8-carboxamide] | ≤ 5 nM | > 1000 nM | 5 to 50 nM | 5 to 50 nM | 50 to 1000 nM | 50 to 1000 nM | ≤ 5 nM | 5 to 50 nM | 50 to 1000 nM | ≤ 5 nM | ≤ 5 nM
5 | ≤ 5 nM | C[C@@H]1COCc2nc3cc(C(=O)Nc4ccc(OC(F)(F)Cl)cc4)cc(-c4cnc5c(c4)-c4nn(-c6ccccn6)cc4C5)c3n21 [T-4] | ≤ 5 nM | > 1000 nM | > 1000 nM | 5 to 50 nM | 50 to 1000 nM | 50 to 1000 nM | 5 to 50 nM | 5 to 50 nM | 50 to 1000 nM | ≤ 5 nM | ≤ 5 nM
